Assay results from the supplement of paper PMC10307832.

What was measured:
Assay in all cases: relative viability (nuclei count vs DMSO), 5 days (fraction); higher = more cells survive
[1] = compound: CC1CC(=O)N(C2=CN=C(N=C2N1C3CCCC3)NC4=C(C=C(C=C4)C(=O)NC5CCN(CC5)C)OC)C [NPK76-II-72-1] + CS(=O)(=O)CCNCc1ccc(-c2ccc3ncnc(Nc4ccc(OCc5cccc(F)c5)c(Cl)c4)c3c2)o1 [Lapatinib] (partner 2 µM)
Method in brief: (§1)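 A single step with final 0.05% Triton X-100, 1% formaldehyde and 1 ug/ml Hoechst fixed the cells and stained nuclei 5 days after treatment. Lung cancer cell lines in 1536-well plates had been treated by pin tool the day after seeding with one drug alone or a fixed anchor-drug dose plus five library-drug doses (not always all listed) in √10 steps, and nuclei were counted on 4× images. Relative viability is the ratio of nuclei in treated wells to nuclei in vehicle wells, taken as the median of duplicate plates.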

BI-2536 + Phenformin = compound: CC[C@@H]1C(=O)N(C)c2cnc(Nc3ccc(C(=O)NC4CCN(C)CC4)cc3OC)nc2N1C1CCCC1 [BI-2536] + N=C(N)NC(=N)NCCc1ccccc1 [Phenformin] (partner 250 µM)
Method in brief: as §1

BI-2536 + Palbociclib = compound: CC[C@@H]1C(=O)N(C)c2cnc(Nc3ccc(C(=O)NC4CCN(C)CC4)cc3OC)nc2N1C1CCCC1 [BI-2536] + CC(=O)c1c(C)c2cnc(Nc3ccc(N4CCNCC4)cn3)nc2n(C2CCCC2)c1=O [Palbociclib] (partner 0.5 µM)
Method in brief: as §1

BI-2536 + Luminespib = compound: CC[C@@H]1C(=O)N(C)c2cnc(Nc3ccc(C(=O)NC4CCN(C)CC4)cc3OC)nc2N1C1CCCC1 [BI-2536] + CCNC(=O)c1noc(-c2cc(C(C)C)c(O)cc2O)c1-c1ccc(CN2CCOCC2)cc1 [Luminespib] (partner 0.01 µM)
Method in brief: as §1

Cell Line | relative viability ([1]; first compound 0.03162 µM) | relative viability ([1]; first compound 0.1 µM) | relative viability ([1]; first compound 0.3162 µM) | relative viability ([1]; first compound 1 µM) | relative viability (BI-2536 + Phenformin; first compound 0.01 µM) | relative viability (BI-2536 + Phenformin; first compound 0.03162 µM) | relative viability (BI-2536 + Phenformin; first compound 0.1 µM) | relative viability (BI-2536 + Phenformin; first compound 0.3162 µM) | relative viability (BI-2536 + Phenformin; first compound 1 µM) | relative viability (BI-2536 + Palbociclib; first compound 0.01 µM) | relative viability (BI-2536 + Palbociclib; first compound 0.03162 µM) | relative viability (BI-2536 + Palbociclib; first compound 0.1 µM) | relative viability (BI-2536 + Palbociclib; first compound 0.3162 µM) | relative viability (BI-2536 + Palbociclib; first compound 1 µM) | relative viability (BI-2536 + Luminespib; first compound 0.01 µM) | relative viability (BI-2536 + Luminespib; first compound 0.03162 µM) | relative viability (BI-2536 + Luminespib; first compound 0.1 µM) | relative viability (BI-2536 + Luminespib; first compound 0.3162 µM) | relative viability (BI-2536 + Luminespib; first compound 1 µM) | relative viability ([1]; first compound 0.01 µM)
LCLC-97TM1 | 0.887 | 0.859 | 0.739 | 1.32 | 0.43 | 0.432 | 0.366 | 0.137 | 0.154 | 0.225 | 0.203 | 0.144 | 0.107 | 0.0769 | 0.785 | 0.641 | 0.504 | 0.14 | 0.175 | –
EPLC-272H | 0.968 | 1.01 | 1.04 | 1.11 | 0.241 | 0.28 | 0.105 | 0.109 | 0.103 | 0.293 | 0.315 | 0.234 | 0.168 | 0.152 | 0.293 | 0.166 | 0.153 | 0.102 | 0.0894 | 0.905
NCI-H1915 | 1.07 | 1.01 | 0.881 | 0.897 | 0.351 | 0.328 | 0.12 | 0.0657 | 0.0862 | 0.424 | 0.546 | 0.426 | 0.0999 | 0.0968 | 0.848 | 0.379 | 0.219 | 0.0675 | 0.0811 | 0.931
NCI-H2405 | 1.11 | 1.09 | 1.04 | 1.09 | 0.378 | 0.377 | 0.321 | 0.153 | 0.243 | 0.514 | 0.509 | 0.359 | 0.284 | 0.349 | 0.599 | 0.435 | 0.359 | 0.283 | 0.31 | 1.13
NCI-H322M | 0.636 | 0.597 | 0.612 | 0.557 | 0.76 | 0.725 | 0.497 | 0.341 | 0.251 | 0.503 | 0.436 | 0.462 | 0.447 | 0.395 | 0.844 | 0.509 | 0.439 | 0.409 | 0.303 | 0.515
NCI-H2170 | 0.286 | 0.257 | – | 0.268 | 0.435 | 0.413 | 0.34 | 0.167 | 0.202 | 0.379 | 0.437 | 0.363 | 0.155 | 0.16 | 0.624 | 0.802 | 0.661 | 0.205 | 0.219 | 0.267
NCI-H1395 | 1.11 | 1.09 | 1.03 | 1.07 | 0.439 | 0.444 | 0.293 | 0.279 | 0.316 | 0.574 | 0.516 | 0.339 | 0.347 | 0.375 | 0.582 | 0.605 | 0.511 | 0.361 | 0.339 | 1.1
NCI-H358 | 0.443 | 0.549 | 0.453 | 0.477 | 0.363 | 0.172 | 0.0663 | 0.0665 | 0.072 | 0.132 | 0.133 | 0.104 | 0.0605 | 0.0928 | 0.414 | 0.283 | 0.398 | 0.127 | 0.0998 | 0.444
NCI-H838 | 1.08 | 1.05 | 0.971 | 1.09 | 0.571 | 0.329 | 0.116 | 0.116 | 0.105 | 0.214 | 0.202 | 0.199 | 0.0979 | 0.0994 | 0.357 | 0.307 | 0.146 | 0.125 | 0.114 | 0.951
CAL-12T | 0.749 | 0.632 | – | 0.777 | 0.543 | 0.422 | 0.289 | 0.134 | 0.115 | 0.431 | 0.351 | 0.249 | 0.127 | 0.132 | 0.774 | 0.229 | 0.173 | 0.124 | 0.202 | 0.571
